Several values for one entry are separate records, joined by “and”; a condition that tells them apart may be missing. Identical values can stand only once. Activity calls are given as the source filed them.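 How the source made its calls: active means compounds raising the signal whose fitted half-maximal concentration is at or below their top tested dose (cut at about 25 µM in these data); inconclusive means flat fit at 30 to 70% activity, or a poor fit; inactive means the rest.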

The AC50 is the concentration at which the activity in the assay is half-maximal.

The subject of this assay is INS-1E rat beta cells, no cytokines, CellTiter-Glo ATP, 48 h. Kind of assay: cytokine-free beta-cell viability effect – INS-1E rat cells, ATP luminescence, cherry pick, counter-screen for beta-cell apoptosis protection project, dose response (AID 463229). A general note: The purpose of a counterscreen is to sort out artefacts and off-target activity.
On to `Cc1ccc(/C=N/NC(=O)c2c(-c3ccccc3)noc2C)c(O)c1`, for which the AC50 was 7.91 µM.

Consider `Cc1sc2cc3c(c(C(=O)c4ccccc4)[n+]2c1C)-c1cccc2cccc-3c12`, for which the AC50 was 2.27 µM.

With `COc1ccc(C(=O)NC(=S)NNC(=O)c2cnccn2)cc1OC`, the AC50 was 7.95 µM.

For the compound `CCCCCCCC[n+]1c(C)n(-c2ccccc2)c2ccc(NC(C)=O)cc21`, the AC50 is 3.76 µM.

As for `O=C(N/N=C\c1c(O)ccc2ccccc12)c1ccc(Cn2cccn2)o1`, the AC50 was 4.39 µM.

On to `Brc1ccccc1CN1CCN(Cc2c[nH]c3ccccc23)CC1`, for which the AC50 is 2.76 µM.

With `CN1c2ccccc2N(C)C1(C)c1ccccc1`, the AC50 is 0.604 µM.

For the compound `CCCCCCSc1cc(-c2nc3ccc(C)cn3c2NCCCC)ccc1OC`, the half-maximal activity concentration (AC50) was 6.79 µM.

As to `Cc1ccc(C(=O)OCn2ncc(Cl)c(Cl)c2=O)cc1`, the AC50 is 7.77 µM.

In the case of `Cc1nnc2ccc(Oc3ccc(-c4ccccc4)cc3)nn12`, the AC50 is 8.92 µM.

Turning to `O=C(Nc1cc(S(=O)(=O)Nc2ccc(Cl)cc2)ccc1N1CCCCC1)c1ccc(F)cc1`, the AC50 was 7.6 µM.

`CCC(C)c1ccc(NC(=S)NC2CCN(Cc3ccccc3)CC2)cc1` (stereo not drawn): the AC50 was 10.4 µM.

Turning to `O=C(Oc1c(Cl)cc(Cl)c2cccnc12)c1cccs1`, the AC50 is 15 µM.

In the case of `C/C(=N\NC(=O)C(c1ccccc1)c1ccccc1)c1ccccn1`, the AC50 is 8.03 µM.

Take `CC(C)C[C@H](NC(=O)c1nc[nH]c1C(=O)N[C@@H](CC(C)C)C(=O)OC(C)(C)C)C(=O)OCc1ccccc1`: the AC50 was 14.6 µM.

On to `CN(C)S(=O)(=O)c1ccc(Nc2nc(C3CC3)nc3c2nnn3Cc2ccccc2Cl)cc1`, for which the AC50 is 7 µM.

On to `C#CC[N+](C)(C)CCCCCCCCCCCC`, for which the half-maximal activity concentration (AC50) is 6.1 µM.

Consider `Cc1ccc(NC2=C(N3CCCCC3)C(=O)c3ccccc3C2=O)cc1`, for which the AC50 was 1.9 µM.

For `O=C(N/N=C/c1ccccc1)c1c(O)c2ccccc2[nH]c1=O`, the AC50 is 6.58 µM.

Take `COc1ccc2nc(/C(C#N)=C\c3ccc(Oc4ccc([N+](=O)[O-])cn4)cc3)[nH]c2c1`: the AC50 is 6.77 µM.

As for `CCN1/C(=C/C=C/c2oc3ccc(-c4ccccc4)cc3[n+]2CC)Oc2ccc(-c3ccccc3)cc21`, the AC50 is 0.78 µM.

As for `CCCNC(=O)c1ccc2c(=O)c(O)c(-c3cccc(Br)c3)[nH]c2c1`, the AC50 was 4.63 µM.

For the compound `O=C(NC(NC(=S)Nc1ccccc1)C(Cl)(Cl)Cl)c1cccc(Cl)c1` (stereo not drawn), the AC50 is 13.9 µM.

For `Cn1c(NN=O)nc2ccccc21`, the AC50 is 4.08 µM.

In the case of `Cc1occc1C(=O)N/N=C/c1c(O)ccc2ccccc12`, the AC50 is 7.95 µM.

For the compound `Cc1nc(C(=O)NNC(=O)c2c(-c3c(Cl)cccc3Cl)noc2C)cs1`, the AC50 was 19.9 µM.

With `Cc1ccccc1OCc1n(CC(=O)OC2CC(C)CCC2C(C)C)c2ccccc2[n+]1C` (stereo not drawn), the AC50 was 4.05 µM.

As to `C#CCOCCOCCOCCNc1nc(N2CCN(C(=O)CCCCCCCCCCNC(=O)[C@H](CCCCN)n3cc(C)nn3)CC2)nc(N2CCN(C(=O)CCCCCCCCCCNC(=O)[C@H](CCCN=C(N)N)n3cc(C[C@@H](C)CC)nn3)CC2)n1`, the AC50 is 7.85 µM.

Consider `C1=C(CCNc2ncnc3c2[nH]c2ccccc23)CCCC1`, for which the AC50 was 0.489 µM.

Take `CCOC(=O)C1=C(c2ccc(OC)cc2)C(=O)c2ccccc2C1=O`: the AC50 is 3.83 µM.

With `COc1ccc(OC)c2sc(N(CCCN(C)C)C(=O)c3ccc(S(=O)(=O)N4CCc5ccccc5C4)cc3)nc12`, the AC50 is 2.23 µM.

For the compound `CCOc1cc(/C=N/Nc2cc(C)nc(-n3nc(C)cc3C)n2)ccc1O`, the AC50 was 5.78 µM.

With `Cc1nnsc1-c1onc(C)c1C(=O)Nc1cc(Cl)cc(Cl)c1`, the AC50 was 16.5 µM.

Regarding `COCCn1c(SCC(=O)/C=C2\N(C)c3ccccc3C2(C)C)nnc1-c1ccncc1`, the AC50 is 13.1 µM.

In the case of `CCCN(CCC)C(=O)c1cc([N+](=O)[O-])cc2c1-c1ccc([N+](=O)[O-])cc1C2=C(C#N)C#N`, the half-maximal activity concentration (AC50) was 14.2 µM.

For the compound `CC1CCC(C(C)C)C(OC(=O)Cn2c(COc3ccccc3)[n+](C)c3ccccc32)C1` (stereo not drawn), the AC50 was 7.08 µM.

As to `O=C(NCc1ccccc1)C1=C[C@H](c2csc3ccccc23)C[C@H](OCCCCO)O1`, the AC50 was 6.75 µM.

On to `CCn1c(C)c(C)c2cc(C(=O)N3CCc4ccccc4C3)ccc21`, for which the AC50 is 3.14 µM.

Regarding `Cc1ccc(N=Nc2ccc(O)c3ncccc23)cc1`, the AC50 was 6.58 µM.

Consider `Cn1cc(/C=C/c2cc[n+](C)cc2)c2cc(Cl)ccc21`, for which the AC50 is 4.85 µM.

Turning to `Oc1ccc2ccccc2c1N=Nc1nccs1`, the AC50 is 6.54 µM.

Turning to `Cc1ccc(S(=O)(=O)Nc2cc(Cl)c(O)c3ncccc23)cc1`, the AC50 was 4.38 µM.

For `COc1ccc(NC(=O)c2c(Nc3ccccc3)sc(C(=O)c3ccc(F)cc3)c2N)cc1`, the AC50 was 2.91 µM.

On to `CCC1(c2ccc(F)cc2)NC(=O)N(CC(=O)Nc2ccc(-c3nc4ccc(C)cc4s3)cc2)C1=O` (stereo not drawn), for which the AC50 is 12.4 µM.

Consider `O=C(C#Cc1ccccc1)c1ccco1`, for which the AC50 was 7.8 µM.

Consider `COc1cccc(F)c1C(C[N+](=O)[O-])c1c(N)n(C)c(=O)n(C)c1=O` (stereo not drawn), for which the AC50 was 8.3 µM.

On to `CC(=O)C1=C(c2ccc(Br)cc2)C(=O)c2ccccc2C1=O`, for which the AC50 is 3.63 µM.

As to `S=C(Nc1ccc(Nc2ccccc2)cc1)Nc1ccccn1`, the AC50 is 11.5 µM.

For the compound `COc1ccc(C2=Nn3c([n+](C)c4ccccc43)SC2)cc1`, the AC50 is 1.54 µM.

In the case of `Cc1onc(-c2ccccc2)c1C(=O)NC(=S)NNC(=O)c1ccccc1O`, the AC50 is 18.4 µM.

As to `COc1ccc(OC)c(NC(=O)CSc2nnc(-c3cccnc3)s2)c1`, the AC50 is 7.37 µM.

Consider `O=C(O)CCCC(=O)Nc1ccc(C(=O)NCc2cccnc2)cc1`, for which the AC50 was 4.54 µM.

As for `Cc1ccc(S(=O)(=O)Nc2ccccc2N(C)S(=O)(=O)c2ccc(C)cc2)cc1`, the AC50 was 15.6 µM.

With `CCN1CCN(Cc2ccc(NC(=O)c3cc(NC(=O)c4cncc(-c5ccc(C#N)cc5)c4)cc(OC)c3)cc2C(F)(F)F)CC1`, the AC50 is 10.8 µM.

Consider `CNc1ccc2oc(C[C@H]3O[C@@]4(CC[C@H]3C)O[C@H]([C@H](C)C(=O)c3ccc[nH]3)[C@H](C)C[C@H]4C)nc2c1C(=O)O`, for which the AC50 was 1.32 µM.

On to `CCOC(=O)N1CCN(c2ncnc3c2[nH]c2ccc(F)cc23)CC1`, for which the AC50 is 6.43 µM.

`COc1cc(Cl)c(NC2=CC(=O)C(=O)c3ccccc32)c(OC)c1`: the AC50 is 8.01 µM.

`C=C1C(=O)C=C2CN(C(=O)c3ccccc3)[C@@](Cc3ccc(F)cc3)(C(=O)OC)[C@@H]12`: the concentration at half-maximal activity (AC50) is 2.56 µM.

On to `CC1C/C(=C/c2ccncc2)C(=O)/C(=C/c2ccncc2)C1` (stereo not drawn), for which the AC50 is 4.62 µM.

Consider `CC(C)c1cccc(C(C)C)c1OC(=O)[C@H]1OC(C(C)(C)C)=C[C@@H]1c1ccccc1`, for which the AC50 was 7.8 µM.

In the case of `Cc1ccc(-c2nn(-c3ccccc3)cc2/C=N/NC(=O)c2ccc3c(c2)OCO3)cc1`, the AC50 was 5.63 µM.

With `CN(Cc1cccnc1)C(=O)c1cc(COc2ccc3ncccc3c2)on1`, the AC50 was 9.3 µM.

For `O=C(N/N=C/c1sc(N2CCOCC2)nc1-c1ccccc1)c1cccc(S(=O)(=O)N2CCCC2)c1`, the AC50 was 2.25 µM.

Consider `CNC1=C(N(C(C)=O)c2ccc(Br)cc2)C(=O)c2ccccc2C1=O`, for which the AC50 is 0.943 µM.

Regarding `CCN(CC)c1ccc(/C=N/NC(=O)c2ccco2)c(O)c1`, the AC50 was 2.11 µM.

As to `O=S(=O)(c1ccc2nc(Nc3ccccc3)ccc2c1)N1CCCCC1`, the AC50 is 22.4 µM.

As to `Cc1ccc(C2=CC(c3ccc(N(C)C)cc3)n3nnnc3N2)cc1` (stereo not drawn), the AC50 is 6.72 µM.

As for `CC1CCC(C(C)C)C(OC(=O)Cn2c(-c3ccc(Br)cc3)[n+](C)c3ccccc32)C1` (stereo not drawn), the AC50 is 3.86 µM and 4.4 µM.

For the compound `O=C1N/C(=N\N=C\c2cccnc2)SC1Cc1ccc(SC(F)F)cc1` (stereo not drawn), the AC50 was 9.68 µM.

As to `CCN1c2ccccc2N(C)C1(C)c1ccccc1` (stereo not drawn), the AC50 is 4.56 µM.

`CCCC(=O)NC(c1cccs1)c1cc(Cl)c2cccnc2c1O` (stereo not drawn): the AC50 is 5.67 µM.

`COc1ccc(-c2nc(NC(=O)c3cc(C(C)(C)C)nn3C)sc2C)cc1`: the AC50 is 17.6 µM.

Regarding `COc1ccc(C(=O)/C(=C\c2ccco2)N2C=CC=CC2=C(C#N)C#N)cc1`, the half-maximal activity concentration (AC50) was 7.26 µM.

Take `Cc1[nH]n(-c2ccccc2)c(=O)c1/C=N/NC(=O)COc1ccccc1[N+](=O)[O-]`: the AC50 is 8.45 µM.

As for `CC(=O)/C=C/n1c(=S)oc2ccccc21`, the half-maximal activity concentration (AC50) was 8.87 µM.

Regarding `CCCCCCCCCCn1ccc(=N)cc1`, the AC50 is 0.543 µM.

For `O=C(C#Cc1ccccc1)Nc1cccc(F)c1`, the AC50 was 11.8 µM.

`O=C(c1cccnc1)N(c1cc2sc(=O)oc2c2ccccc12)S(=O)(=O)c1ccccc1`: the AC50 was 15.5 µM.

With `NC(=S)N/N=C/c1ccccc1O`, the AC50 is > 26 µM (inactive).

`O=C(NNc1ccnc2cc(Cl)ccc12)C1CCCCC1`: the AC50 is 2.53 µM.

`O=S(=O)(c1ccc2c(c1)OCCO2)N1CCN(c2ncnc3sccc23)CC1`: the AC50 was 4.9 µM.

On to `Cc1ccc(Cn2c(=N)n(CC(=O)c3ccccc3)c3ccccc32)cc1`, for which the AC50 is 9.12 µM.

`CC(C)(C)c1ccc(/C=C(\c2nc3ccccc3[nH]2)S(=O)(=O)c2ccccc2)cc1`: the AC50 is 7.37 µM.

Regarding `COc1ccc(NC(=O)/C(Cl)=C(/Cl)S(=O)Cc2ccc(C)cc2)cn1` (stereo not drawn), the AC50 was 1.3 µM.

With `CCOc1ccc(S(=O)(=O)N(C)c2ccc(OCC(=O)Nc3nc4ccccc4s3)cc2)cc1`, the AC50 was 7.9 µM.

On to `CC(=O)c1ccc(OCc2cc(C(=O)N3CCCCC3c3cccnc3)no2)cc1` (stereo not drawn), for which the AC50 was 22.4 µM.

Turning to `O=C(N/N=C/c1cc([N+](=O)[O-])ccc1O)c1cccc2cc[nH]c12`, the AC50 was 6.89 µM.

`COc1ccc(-c2ccc([C@H]3[C@@H]4C=CCC[C@@]4(C)C(=O)N3Cc3ccccc3)c(F)c2)cc1`: the AC50 is 22.5 µM.

Regarding `CCCCC1(Cc2ccc([N+](=O)[O-])cc2)C(=O)N(c2ccccc2)N(c2ccccc2)C1=O`, the AC50 was 3.72 µM.

With `CC(=O)c1c(C)[nH]c(C(=O)OCCCCN2C(=O)c3ccccc3C2=O)c1C`, the AC50 is 6.54 µM.

For the compound `Oc1cccc(/C=N/NC(=S)Nc2cccnc2)c1O`, the AC50 is 8.6 µM.

As to `CC(C)c1ccc(/C=C(\c2nc3ccccc3[nH]2)S(=O)(=O)c2ccccc2)cc1`, the AC50 was 4.54 µM.

With `COC(=O)c1cc(=O)n(CCc2ccccc2F)c(=Nc2ccc(F)c(Cl)c2)s1`, the AC50 is 11.1 µM.

Values taken from PubChem BioAssay AID463229 (Broad Institute, 2010).
